Patent publication US20120252827A1, “COMBINATION OF THERAPY COMPRISING ZD6474 AND A TAXANE” (priority 2001, published 2012)

Test system: GEO human colon cancer xenografts
Assay: GEO human colon cancer xenograft model: ZD6474 dosed intraperitoneally
Type: in vivo, BALB/c athymic (nu+/nu+) mice
Conditions: GEO xenografts s.c. in mice; for Average time (days) from day 28 to reach an average tumour volume of 2 cm^3 (approximately 10% of mouse body weight): paclitaxel 400 μg/mouse i.p., ZD6474 100 mg/kg/day i.p.; for Average tumour volume on day 28 after tumour cell injection: treatment from day 7, paclitaxel 400 μg/mouse i.p. days 7, 14, 21, 28, ZD6474 100 mg/kg/day i.p. days 7-11, 14-18, 21-25, 28-32
Method: a) Geo Human Colon Cancer Xenograft Model: ZD6474 Dosed Intraperitoneally
Female BALB/c athymic (nu+/nu+) mice 4-6 weeks of age were injected subcutaneously (s.c.) with GEO human colon cancer cells (10^7 cells resuspended in 200 μl Matrigel) on day 0. Treatment was initiated on day 7 after s.c. implantation of GEO cells when the average tumour volume was 0.25 (+0.05) cm^3. 10 mice per group were treated either with intraperitoneal (i.p.) paclitaxel (400 μg/mouse) on days 7, 14, 21 and 28, or with ZD6474 (100 mg/kg/day i.p. suspended in a 1% (v/v) solution of polyoxyethylene (20) sorbitan mono-oleate in deionised water) on days 7-11, 14-18, 21-25 and 28-32, or with a combination of both agents. In the case of combination treatments, where mice received both agents on the same day, paclitaxel was given 10-15 minutes before ZD6474. Tumour size was measured using the formula π/6×larger diameter×(smaller diameter)^2.
The average tumour volume on day 28 following tumour cell injection in control mice, 1.95 (+0.15) cm^3, was approximately 10% of nude mouse body weight and mice in this group were sacrificed at this time. […] Statistical evaluations of time to reach a tumour volume of 2 cm^3 has been done using the Mantel-Cox logrank test with the following results: ZD6474 (100 mg/kg) versus control (p=0.001); paclitaxel+ZD6474 (100 mg/kg) versus control (p=0.0001); paclitaxel+ZD6474 (100 mg/kg) versus paclitaxel (p=0.001); paclitaxel+ZD6474 (100 mg/kg) versus ZD6474 (100 mg/kg) (p=0.01).

Row | Structure (SMILES) | Average time (days) from day 28 to reach an average tumour volume of 2 cm^3 (approximately 10% of mouse body weight) | Average tumour volume on day 28 after tumour cell injection
1 | CC(=O)O[C@H]1C(=O)[C@@]2(C)[C@H]([C@H](OC(=O)c3ccccc3)[C@]3(O)C[C@H](OC(=O)[C@H](O)[C@@H](NC(=O)c4ccccc4)c4ccccc4)C(C)=C1C3(C)C)[C@]1(OC(C)=O)CO[C@@H]1C[C@@H]2O [Paclitaxel, paclitaxel] | 14 (±3) days | 0.95 (±0.1) cm^3
2 | COc1cc2c(Nc3ccc(Br)cc3F)ncnc2cc1OCC1CCN(C)CC1 [ZD6474, 4-(4-bromo-2-fluoroanilino)-6-methoxy-7-(1-methylpiperidin-4-ylmethoxy)quinazoline] | 29 (±2) days | 0.1 (±0.05) cm^3
